Entries after “also recorded” stand apart in the source; their conditions may differ.

One test has as its system MAPK signaling pathway. Nature of the test: Western blot, MAPK pathway. In kind it is cell-based, human. The conditions noted are these: for MAPK pathway (pERK1/2, pCDK2): Example 8, 24 hours, actives 3-5 μmol/L, inactives 30-50 μmol/L. As to the method:
(§1) For Western blot analysis, cell lysates are harvested by addition of RIPA lysis buffers containing 25 mM Tris.HCl pH 7.6, 150 mM NaCl, 1% NP-40, 1% sodium deoxycholate, 0.1% SDS, 10 mM EDTA, 1 mM sodium orthovanadate, 0.1 mM sodium molybdate, 1 mM phenylmethylsulfonyl fluoride, 20 μg/mL aprotinin, and 5 μg/mL leupeptin. The cell lysates are harvested and processed as described in Madhunapantula, S. V. et al., Cancer Res, 2007, 67:3626-36. Treatment conditions: 1-1.5×10^6 melanoma cells are plated in 100 mm culture dishes, 48 h later, treated with leelamine (3-6 μmol/L) for 3 to 24 hours. Protein lysates are collected for Western blotting. The blots are probed with antibodies according to each supplier's recommendations: antibodies to total Akt, phospho-Akt (Ser473), total PRAS40, phospho-PRAS40 (Thr246), total CREB, phospho-CREB (Ser133), phospho-p70 S6 kinase (Thr389), total Erk1/2, phospho-Erk1/2 (Thr202/Tyr 204), total CDK2, phospho-CDK2 (Thr160), phospho-Rb (Ser807/811), total Stat, phospho-Stat1 (Tyr701), Phospho-Stat-2(Tyr690), Phospho-Stat3(Ser727), phospho-Stat3(Tyr705) and cleaved PARP from Cell Signaling Technology (Danvers, Mass.); total PRAS40 from Invitrogen (Carlsbad, Calif.); cyclin D1, Bcl-2, α-enolase and secondary antibodies conjugated with horseradish peroxidase from Santa Cruz Biotechnology (Santa Cruz, Calif.). Immunoblots are developed using the enhanced chemiluminescence (ECL) detection system (Thermo Fisher Scientific, Rockford, Ill.). Intensity of protein bands is quantified using ImageJ software.
(§2) For Western blot analysis, 1×10^6 melanoma cells are plated in 100 mm culture dishes, 48 hours later, treated with empty liposomes or Nanolipolee-007 (3-6 μmol/L) for 3 to 24 hours. Protein lysates collected for Western blotting. The cell lysates are harvested in an RIPA lysis buffer containing protease and phosphatases inhibitors (Pierce Biotechnology, Rockford, Ill.). Blots are probed with antibodies according to each supplier's recommendations: antibodies to total Akt, phospho-Akt (Ser473), total PRAS40, phospho-PRAS40 (Thr246), total Bad, pBad (Ser 112) total Erk1/2, phospho-Erk1/2 (Thr202/Tyr 204), total CDK2, phospho-CDK2 (Thr160), phospho-Rb (Ser807/811), total Stat, phospho-Stat3 (Tyr705), caspase-3 and cleaved PARP from Cell Signaling Technology (Danvers, Mass.); total PRAS40 from Invitrogen (Carlsbad, Calif.); cyclin D1, α-enolase and secondary antibodies conjugated with horseradish peroxidase from Santa Cruz Biotechnology (Santa Cruz, Calif.). Immunoblots are developed using the enhanced chemiluminescence (ECL) detection system (Thermo Fisher Scientific, Rockford, Ill.). Intensity of protein bands is quantified using ImageJ software.
(§3) Cell lysates are harvested by addition of RIPA lysis buffers containing 25 mM Tris*HCl pH 7.6, 150 mM NaCl, 1% NP-40, 1% sodium deoxycholate, 0.1% SDS, 10 mM EDTA, 1 mM sodium orthovanadate, 0.1 mM sodium molybdate, 1 mM phenylmethylsulfonyl fluoride, 20 μg/mL aprotinin, and 5 μg/mL leupeptin. The cell lysates are harvested and processed as described. […] Protein lysates collected for Western blotting. […] Intensity of protein bands is quantified using ImageJ software. […]
(A western blot detects proteins with antibodies after separation by electrophoresis.)

For the next test, the system named is cancer cell line. Nature of the test: MTS assay viability IC50, A-459. In kind it is cell-based. The conditions noted are these: A459; Table 5; read-out: IC50 Liver (A-459). As for the experimental part:
(§4) Dehydroabietylamine, its N-substituted derivatives and the corresponding dihydroabietylamine and its N-substituted derivatives are tested for their capability to inhibit cell growth of cancer cell lines, including melanoma (UACC 903, 1205Lu), breast (MCF-7), fibrosarcoma (HT-1080), colon (Caco-2), and prostate (PC-3) cancer cell lines. Viability and IC50 of normal human fibroblasts and cell lines from melanoma and other malignancies following treatment with all the agents are measured using the MTS assay (Promega, Madison, Wis.). Human fibroblast FF2441 cells, metastatic melanoma cell lines 1205 Lu and UACC 903 as well as cancer cell lines representing sarcoma (HT-1080), prostate (PC-3, LNCaP), breast (MCF-7) and lung (A-549) are maintained in DMEM (Invitrogen, Carlsbad, Calif.) supplemented with 10% FBS (Hyclone, Logan, Utah) in a 5% CO2 atmosphere, humidified 37° C. incubator. 5×10^3 cells per well in 100 μL of media are plated and grown in a 96-well plate for 48 to 72 h and treated with either DMSO vehicle control or 0.62 to 40 μmol/L for 24, 48 or 72 h. IC50 values for each compound in […] for respective cell lines are measured from three independent experiments using GraphPad Prism version 4.01 (GraphPad Software, La Jolla, Calif.). FIG. 52 is a graph showing IC50 values for leelamine and compounds 4a, 4b and 5a in treated fibroblasts (FF2441) compared to melanoma cells. Selectivity ratio here is defined as ratio of activity against fibroblasts compared to activity against melanoma cells. Leelamine is relatively selective with a ratio of >6 and >4 for UACC903 and 1205Lu melanoma cells. The selectivity ratio of compound 4a is ˜4 and ˜3 for UACC903 and 1205Lu and for compound 4b is ˜4 for both cell lines. The selectivity ratio of compound 5a is ˜4 for UACC903 and >2 for 1205Lu cells.
For orientation: Tetrazolium assays rely on reduction of a dye to a coloured formazan, in cell work by metabolically active cells.

For the next test, the system named is STAT signaling pathway. The experiment in a line: Western blot, STAT pathway. In kind it is cell-based, human. To be noted: for STAT3 pathway (pSTAT3): Example 8, 24 hours, actives 3-5 μmol/L, inactives 30-50 μmol/L. As for the experimental part: as §1, §2, §3
In test [1] the test system is Prostate (PC-3) cancer cell line. Nature of the test: MTS assay viability IC50, PC-3. In kind it is cell-based. To be noted: Table 5. As to the method: as §4
Test [2] relates to Breast (MCF-7) cancer cell line. Nature of the test: MTS assay viability IC50, MCF-7. In kind it is cell-based. To be noted: Homo sapiens, MCF7; Table 5. As to the method:
as §4

Test [3] has as its system PI3K/Akt signaling pathway. Nature of the test: Western blot, PI3K/Akt pathway. To be noted: for PI3K/AKT pathway (pAKT, pPRAS40, cyclin D1): Example 8, 24 hours, actives 3-5 μmol/L, inactives 30-50 μmol/L. In kind it is cell-based, human. As for the experimental part:
as §1, §2, §3

The mark [4] stands for this setting: 3 to 6 μmol/L for 3 to 24 hours, UACC 903 and 1205 Lu.

As a reminder, the IC50 is the concentration that inhibits the measured activity by half. For the compound `CC(C)c1ccc2c(c1)CCC1[C@](C)(CN)CCC[C@]21C` (stereo partly drawn) [Leelamine, [(1R,4aS)-1,4a-dimethyl-7-(propan-2-yl)-1,2,3,4,4a,9,10,10a-octahydrophenanthren-1-yl]methanamine], the “MAP kinase pathway signaling” value with MAPK signaling pathway (setting [4]) was “decrease activity”. Also, the “MAPK pathway (pERK1/2, pCDK2)” value with MAPK signaling pathway was “blocks activation of ERK1/2; also recorded: Dose dependent reduction of pERK1/2 and pCDK2”. Also, the IC50 in the test on cancer cell line was 9.27 ± 1.43 µM; in test [1] it was 4.85 ± 1.09 µM; in test [2] it was 6.42 ± 0.52 µM. The STAT pathway signaling result in the test on STAT signaling pathway (setting [4]) was “decrease activity”. In addition, in the test on STAT signaling pathway, the “STAT3 pathway (pSTAT3)” value is listed as “completely blocked pSTAT3 expression; also recorded: decrease pSTAT3 expression at all doses”. The “PI3 kinase pathway signaling” value in test [3] (setting [4]) is “decrease activity”. Further, the “PI3K/AKT pathway (pAKT, pPRAS40, cyclin D1)” value (from here on “PI3K/AKT pathway”) in test [3] is “highly effective in abolishing activation of AKT pathway; also recorded: decrease pAKT, pPRAS40 and cyclin D1”.
`CC(C)C1=CC2=CCC3[C@](C)(CCC[C@@]3(C)C(=O)O)C2CC1` (stereo partly drawn) [Abietic acid, (1R,4aR)-1,4a-dimethyl-7-(propan-2-yl)-1,2,3,4,4a,4b,5,6,10,10a-decahydrophenanthrene-1-carboxylic acid, reference compound]: in the test with MAPK signaling pathway, the “MAPK pathway (pERK1/2, pCDK2)” value is on record as “unable to affect”. Besides, the IC50 (in the test on cancer cell line; in test [1]; in test [2]) was > 100 µM in each case. In addition, the “STAT3 pathway (pSTAT3)” value with STAT signaling pathway is “unable to affect”. Moreover, the “PI3K/AKT pathway” value in test [3] is listed as “unable to affect”.
As for `CC(C)c1ccc2c(c1)CCC1[C@](C)(CNC(=O)C(F)(F)F)CCC[C@]21C` (stereo partly drawn) [Compound 5a, N-{[(1R,4aS)-1,4a-dimethyl-7-(propan-2-yl)-1,2,3,4,4a,9,10,10a-octahydrophenanthren-1-yl]methyl}-2,2,2-trifluoroacetamide], in the test with MAPK signaling pathway, the “MAPK pathway (pERK1/2, pCDK2)” value was “Dose dependent reduction of pERK1/2 and pCDK2”. In addition, the concentration for half-maximal inhibition (IC50) in the test with cancer cell line was 9.7 ± 1.34 µM; in test [1], 4.66 ± 0.55 µM; in test [2], 4.39 ± 0.71 µM. In addition, the “STAT3 pathway (pSTAT3)” value with STAT signaling pathway is “decrease pSTAT3 expression at all doses”. The “PI3K/AKT pathway” value in test [3] was “decrease pAKT, pPRAS40 and cyclin D1”.
Consider `CC(C)C1=CC2=CCC3[C@](C)(CN)CCC[C@]3(C)C2CC1` (stereo partly drawn) [Compound 4a, {[(1R,4aR)-1,4a-dimethyl-7-(propan-2-yl)-1,2,3,4,4a,4b,5,6,10,10a-decahydrophenanthren-1-yl]methyl}amine], for which the “MAPK pathway (pERK1/2, pCDK2)” value in the test on MAPK signaling pathway is “Dose dependent reduction of pERK1/2 and pCDK2”. Moreover, the half-maximal inhibitory concentration (IC50) with cancer cell line was determined as 19.1 ± 3.87 µM; in test [1], 9.73 ± 1.04 µM; in test [2], 8.69 ± 1.81 µM. The “STAT3 pathway (pSTAT3)” value in the test with STAT signaling pathway is reported as “decrease pSTAT3 expression at all doses”. The “PI3K/AKT pathway” value in test [3] was “decrease pAKT, pPRAS40 and cyclin D1”.

Values taken from patent US9839618B2, “Compositions and methods relating to proliferative diseases” (The Penn State Research Foundation, priority 2010, dated 2017).
